In ChEMBL document CHEMBL3046607, “Synthesis and Herbicidal Activity of New 1-Alkyl-3-aryloxypyrazole-4-carboxamide Derivatives” (J Pestic Sci, 2004):
Calls of active or inactive are those of the source. No cut-off for these calls is given here.

Experiments:
Elatine triandra [1] = assay: Post-emergence herbicidal activity against Elatine triandra assessed as bleaching of stem/leaf parts; format: functional, organism-based; note: test concentration or dose not given here
Ammannia multiflora [2] = assay: Post-emergence herbicidal activity against Ammannia multiflora assessed as bleaching of stem/leaf parts; format: functional, organism-based
Rotala indica [3] = assay: Post-emergence herbicidal activity against Rotala indica assessed as bleaching of stem/leaf parts; format: functional, organism-based
Lindernia procumbens [4] = assay: Post-emergence herbicidal activity against Lindernia procumbens assessed as bleaching of stem/leaf parts; format: functional, organism-based; note: test concentration or dose not given here
[5] = system: Schoenoplectiella juncoides; assay: Post-emergence herbicidal activity against Schoenoplectiella juncoides assessed as bleaching of stem/leaf parts; format: functional, organism-based; note: test concentration or dose not given here
Oryza sativa = assay: Phytotoxicity against Oryza sativa cv. Koshihikari (rice) at 33 g a.i/ha measured after 14 days; format: organism-based; conditions: in vivo, 336 h
Ammannia multiflora [6] = assay: Pre-emergence herbicidal activity against Ammannia multiflora at 33 g a.i/ha measured after 14 days; format: functional, organism-based
Elatine triandra [7] = assay: Pre-emergence herbicidal activity against Elatine triandra at 33 g a.i/ha measured after 14 days; format: functional, organism-based
Rotala indica [8] = assay: Pre-emergence herbicidal activity against Rotala indica at 33 g a.i/ha measured after 14 days; format: functional, organism-based
Lindernia procumbens [9] = assay: Pre-emergence herbicidal activity against Lindernia procumbens at 33 g a.i/ha measured after 14 days; format: functional, organism-based
[10] = system: Schoenoplectiella juncoides; assay: Pre-emergence herbicidal activity against Schoenoplectiella juncoides at 33 g a.i/ha measured after 14 days; format: functional, organism-based
Pontederia vaginalis [11] = assay: Pre-emergence herbicidal activity against Monochoria vaginalis at 33 g a.i/ha measured after 14 days; format: functional, organism-based
Cyperus difformis [12] = assay: Pre-emergence herbicidal activity against Cyperus difformis at 33 g a.i/ha measured after 14 days; format: functional, organism-based
Echinochloa oryzicola [13] = assay: Pre-emergence herbicidal activity against Echinochloa oryzicola at 33 g a.i/ha measured after 14 days; format: functional, organism-based
Lindernia procumbens [14] = assay: Pre-emergence herbicidal activity against Lindernia procumbens assessed as bleaching of stem/leaf parts; format: functional, organism-based
Pontederia vaginalis [15] = assay: Pre-emergence herbicidal activity against Monochoria vaginalis assessed as bleaching of stem/leaf parts; format: functional, organism-based
[16] = system: Schoenoplectiella juncoides; assay: Pre-emergence herbicidal activity against Schoenoplectiella juncoides assessed as bleaching of stem/leaf parts; format: functional, organism-based
Cyperus difformis [17] = assay: Pre-emergence herbicidal activity against Cyperus difformis assessed as bleaching of stem/leaf parts; format: functional, organism-based
Echinochloa oryzicola [18] = assay: Pre-emergence herbicidal activity against Echinochloa oryzicola assessed as bleaching of stem/leaf parts; format: functional, organism-based
Cyperus difformis [19] = assay: Post-emergence herbicidal activity against Cyperus difformis assessed as bleaching of stem/leaf parts; format: functional, organism-based; note: test concentration or dose not given here
Pontederia vaginalis [20] = assay: Post-emergence herbicidal activity against Monochoria vaginalis assessed as bleaching of stem/leaf parts; format: functional, organism-based
Echinochloa oryzicola [21] = assay: Post-emergence herbicidal activity against Echinochloa oryzicola assessed as bleaching of stem/leaf parts; format: functional, organism-based
Ammannia multiflora [22] = assay: Pre-emergence herbicidal activity against Ammannia multiflora assessed as bleaching of stem/leaf parts; format: functional, organism-based
Elatine triandra [23] = assay: Pre-emergence herbicidal activity against Elatine triandra assessed as bleaching of stem/leaf parts; format: functional, organism-based
Rotala indica [24] = assay: Pre-emergence herbicidal activity against Rotala indica assessed as bleaching of stem/leaf parts; format: functional, organism-based

Row | SMILES | Activity (Elatine triandra [1]) | Activity (Ammannia multiflora [2]) | Activity (Rotala indica [3]) | Activity (Lindernia procumbens [4]) | Activity [5] | Activity (Oryza sativa) | Activity (Ammannia multiflora [6]) | Activity (Elatine triandra [7]) | Activity (Rotala indica [8]) | Activity (Lindernia procumbens [9]) | Activity [10] | Activity (Pontederia vaginalis [11]) | Activity (Echinochloa oryzicola [13]) | Activity (Lindernia procumbens [14]) | Activity (Pontederia vaginalis [15]) | Activity [16] | Activity (Cyperus difformis [17]) | Activity (Echinochloa oryzicola [18]) | Activity (Cyperus difformis [19]) | Activity (Pontederia vaginalis [20]) | other results
1 | CC(C)n1cc(C(=O)Nc2ccc(F)cc2F)c(Oc2cccc(C(F)(F)F)c2)n1 | Active | Active | Active | Active | Active | Non-toxic | inactive | inactive | inactive | inactive | inactive | inactive | inactive | Active | Active | Active | Active | Active | Active | Active | Activity (Cyperus difformis [12]): inactive; Activity (Echinochloa oryzicola [21]): Active; Activity (Ammannia multiflora [22]): Active; Activity (Elatine triandra [23]): Active; Activity (Rotala indica [24]): Active
2 | Cn1cc(C(=O)Nc2ccc(F)cc2Cl)c(Oc2cccc(C(F)(F)F)c2)n1 | Active | Active | Active | Active | Active | Non-toxic | Active | Active | Active | Active | Active | Active | Active | Active | Active | Active | Active | Active | Active | Active | Activity (Cyperus difformis [12]): Active; Activity (Echinochloa oryzicola [21]): Active; Activity (Ammannia multiflora [22]): Active; Activity (Elatine triandra [23]): Active; Activity (Rotala indica [24]): Active
3 | O=C(Nc1ccc(F)cc1F)c1cn(CCF)nc1Oc1cccc(C(F)(F)F)c1 | Active | Active | Active | Active | Active | Non-toxic | inactive | inactive | inactive | inactive | inactive | inactive | inactive | Active | Active | Active | Active | Active | Active | Active | Activity (Cyperus difformis [12]): inactive; Activity (Echinochloa oryzicola [21]): Active; Activity (Ammannia multiflora [22]): Active; Activity (Elatine triandra [23]): Active; Activity (Rotala indica [24]): Active
4 | Cn1cc(C(=O)Nc2ccccc2Cl)c(Oc2cccc(C(F)(F)F)c2)n1 | Active | Active | Active | Active | Active | Non-toxic | Active | Active | Active | Active | Active | Active | Active | Active | Active | Active | Active | Active | Active | Active | Activity (Cyperus difformis [12]): Active; Activity (Echinochloa oryzicola [21]): Active; Activity (Ammannia multiflora [22]): Active; Activity (Elatine triandra [23]): Active; Activity (Rotala indica [24]): Active
5 | CCCn1cc(C(=O)Nc2ccc(F)cc2F)c(Oc2cccc(C(F)(F)F)c2)n1 | Active | Active | Active | Active | Active | Non-toxic | inactive | inactive | inactive | inactive | inactive | inactive | inactive | Active | Active | Active | Active | Active | Active | Active | Activity (Cyperus difformis [12]): inactive; Activity (Echinochloa oryzicola [21]): Active; Activity (Ammannia multiflora [22]): Active; Activity (Elatine triandra [23]): Active; Activity (Rotala indica [24]): Active
6 | Cn1cc(C(=O)Nc2ccc(Cl)cc2F)c(Oc2cccc(C(F)(F)F)c2)n1 | Active | Active | Active | Active | Active | Non-toxic | Active | Active | Active | Active | inactive | Active | inactive | Active | Active | Active | Active | Active | Active | Active | Activity (Cyperus difformis [12]): Active; Activity (Echinochloa oryzicola [21]): Active; Activity (Ammannia multiflora [22]): Active; Activity (Elatine triandra [23]): Active; Activity (Rotala indica [24]): Active
7 | Cn1cc(C(=O)Nc2ccc(F)c(F)c2F)c(Oc2cccc(C(F)(F)F)c2)n1 | Active | Active | Active | Active | Active | Non-toxic | Active | Active | Active | Active | Active | Active | Active | Active | Active | Active | Active | Active | Active | Active | Activity (Echinochloa oryzicola [21]): Active; Activity (Ammannia multiflora [22]): Active; Activity (Elatine triandra [23]): Active; Activity (Rotala indica [24]): Active
8 | Cn1cc(C(=O)Nc2cccc(F)c2F)c(Oc2cccc(C(F)(F)F)c2)n1 | Active | Active | Active | Active | Active | Non-toxic | Active | Active | Active | Active | inactive | Active | inactive | Active | Active | Active | Active | Active | Active | Active | Activity (Cyperus difformis [12]): Active; Activity (Echinochloa oryzicola [21]): Active; Activity (Ammannia multiflora [22]): Active; Activity (Elatine triandra [23]): Active; Activity (Rotala indica [24]): Active
9 | Cn1cc(C(=O)Nc2ccc(Cl)cc2Cl)c(Oc2cccc(C(F)(F)F)c2)n1 | Active | Active | Active | Active | Active | Non-toxic | Active | Active | Active | Active | inactive | Active | inactive | Active | Active | Active | Active | Active | Active | Active | Activity (Cyperus difformis [12]): Active; Activity (Echinochloa oryzicola [21]): Active; Activity (Ammannia multiflora [22]): Active; Activity (Elatine triandra [23]): Active; Activity (Rotala indica [24]): Active
10 | Cn1cc(C(=O)Nc2ccc(F)cc2)c(Oc2cccc(C(F)(F)F)c2)n1 | Active | Active | Active | Active | Active | Non-toxic | Active | Active | Active | Active | inactive | Active | Active | Active | Active | Active | Active | Active | Active | Active | Activity (Cyperus difformis [12]): Active; Activity (Echinochloa oryzicola [21]): Active; Activity (Ammannia multiflora [22]): Active; Activity (Elatine triandra [23]): Active; Activity (Rotala indica [24]): Active
